Compound	melting point
Cn1c(C(=O)O)cc2c3c(c(-c4ccccc4Cl)cc21)C(=O)NC3=O [Example 83, 4-(2-Chlorophenyl)-6-methyl-1,3-dioxo-1,2,3,6-tetrahydro-2,6-diaza-as-indacene-7-carboxylic acid]	301 to 302 °C
Cn1cc(Br)c2c3c(c(I)cc21)C(=O)NC3=O [Example 132, 8-Bromo-4-iodo-6-methyl-6H-2,6-diaza-as-indacene-1,3-dione]	242 °C (dec.)
C=Cc1cn(C)c2cc(-c3ccccc3Cl)c3c(c12)C(=O)NC3=O [Example 145, 4-(2-Chlorophenyl)-6-methyl-8-vinyl-6H-2,6-diaza-as-indacene-1,3-dione]	200 to 205 °C
O=C(O)CCn1cc(Br)c2c3c(c(-c4ccccc4Cl)cc21)C(=O)NC3=O [Example 165, 3-[8-Bromo-4-(2-chlorophenyl)-1,3-dioxo-2,3-dihydro-1H-2,6-diaza-as-indacen-6-yl]propionic acid]	182 to 186 °C
COCCCn1c(CO)c(Br)c2c3c(c(-c4ccccc4Cl)cc21)C(=O)NC3=O [Example 60, 8-Bromo-4-(2-chlorophenyl)-7-hydroxymethyl-6-(3-methoxypropyl)-6H-2,6-diaza-as-indacene-1,3-dione]	178 to 180 °C
Cn1cc(I)c2c3c(c(-c4ccccc4Cl)cc21)C(=O)NC3=O [Example 32, 4-(2-Chlorophenyl)-8-iodo-6-methyl-6H-2,6-diaza-as-indacene-1,3-dione]	150 to 154 °C (dec.)
Cn1cc(CO)c2c3c(c(-c4ccccc4Cl)cc21)C(=O)NC3=O [Example 168, 4-(2-chlorophenyl)-8-hydroxymethyl-6-methyl-6H-2,6-diaza-as-indacene-1,3-dione]	270 to 274 °C
CSc1ccccc1-c1cc2c(ccn2C)c2c1C(=O)NC2=O [Example 134 (sulfide), 6-Methyl-4-(2-methylsulfanylphenyl)-6H-2,6-diaza-as-indacene-1,3-dione]	272 to 274 °C
O=C1NC(=O)c2c1c(-c1ccccc1Cl)cc1c2c(Br)c(CO)n1CCCO [Example 63, 8-Bromo-4-(2-chlorophenyl)-7-hydroxymethyl-6-(3-hydroxypropyl)-6H-2,6-diaza-as-indacene-1,3-dione]	203 to 205 °C
COCCCn1c(CO)cc2c3c(c(-c4ccccc4Cl)cc21)C(=O)NC3=O [Example 59, 4-(2-Chlorophenyl)-7-hydroxymethyl-6-(3-methoxypropyl)-6H-2,6-diaza-as-indacene-1,3-dione]	187 to 189 °C
COCCCn1cc(Br)c2c3c(c(-c4ccccc4Cl)cc21)C(=O)NC3=O [Example 44, 8-Bromo-4-(2-chlorophenyl)-6-(3-methoxypropyl)-6H-2,6-diaza-as-indacene-1,3-dione]	149 to 151 °C
C[C@@H]1CN(CCCn2cc(Br)c3c4c(c(-c5ccccc5Cl)cc32)C(=O)NC4=O)C[C@H](C)N1 [Example 135, 8-Bromo-4-(2-chlorophenyl)-6-[3-(cis-3,5-dimethylpiperazin-1-yl)propyl]-6H-2,6-diaza-as-indacene-1,3-dione]	236 to 239 °C
Cn1cc(CN2CCCC2)c2c3c(c(-c4ccccc4Cl)cc21)C(=O)NC3=O [Example 166, 4-(2-Chlorophenyl)-6-methyl-8-pyrrolidin-1-ylmethyl-6H-2,6-diaza-as-indacene-1,3-dione]	160 to 165 °C (dec.)
O=C1NC(=O)c2c1c(-c1ccccc1Cl)cc1c2cc(CO)n1CCCBr [Example 50, 6-(3-Bromopropyl)-4-(2-chlorophenyl)-7-hydroxymethyl-6H-2,6-diaza-as-indacene-1,3-dione]	218 to 220 °C
